Results reported in EP4458977A1, “SELF-ASSEMBLING PEPTIDE AMPHIPHILES AS RETROVIRAL TRANSDUCTION ENHANCERS” (Max-Planck-Gesellschaft zur Förderung der Wissenschaften …, priority 2023, dated 2024).
“Also recorded” adds a separate entry of the source. Where a SMILES comes first, the peptide text is derived from it. The star is where a group is joined. Palmitoyl = CCCCCCCCCCCCCCCC(=O)*

What was measured:
[1] = ATR-FT-IR determination of β-sheet content; type: physicochemical; details: 1 mg/mL in PBS lyophilized; integral at 1630 cm^-1 relative to 1650-1700 cm^-1
Protocol: ATR-FT-IR: ATR-IR spectra acquisition and the calculation of β-sheet content were conducted according prior art procedures. Briefly, FT-IR spectra of solid samples were recorded after lyophilization of fibril solutions using a Bruker Tensor II spectrometer equipped with a diamond crystal as ATR element with a spectral resolution of 2 cm^-1, each spectrum was an average of 64 scans. The data was processed with Origin software. β-sheet amount was determined by calculating the integral of the peak at 1630 cm-1 (β-sheet) relative to the integral between 1650-1700 cm-1 (native structure) from the 2nd derivative of the FT-IR spectra.

[2] = tested on: HeLa cells; assay: Confocal laser scanning microscopy and degradation study with PA library and HeLa cells; type: cell-based; details: for degradability (in words) / Degradability / % (rel. to initial particles > 10 µm^2): HeLa cells; for degradability (in words): 3 days; for Degradability / % (rel. to initial particles > 10 µm^2): 3 d relative to 30 min; for aggregate number increases / aggregate number decreases / degraded in presence of HeLa cells within 3 days: d3 relative to d0; for association with cellular membranes: 2 µg added to 20.000 HeLa cells, 30 min
Protocol: In general, the procedure for determine whether a PA is degraded or not, is conducted by confocal laser scanning microscopy of Proteostat stained PAs which are added to Hela cells (2 µg peptide added to 20.000 cells). Microscopy is conducted at day 0 (d0, after 30 min of incubation) and at day 3 (d3, after 72 h of incubation). The number of aggregates >10 µm^2 is counted via 3D object counter in imaged in an area of 1008 µm × 1008 µm.
A PA is considered to be degradable if the number and the size of aggregates are reduced after 3 days. The efficiency is determined by the percentual degradation (aggregate number at d3 / aggregate number at d0). For the number of aggregation three technical replicates were evaluated for each sample. A large deviation represents a nonhomogeneous spatial distribution of aggregates.
Confocal laser scanning microscopy and degradation study with PA library and HeLa cells: Confocal laser scanning microscopy studies were performed for the visualization of the cell-PA interaction. HeLa cells were seeded one day prior to conducting the assay (20,000/well) in an 8-well IBIDI slide. […] The nucleus of the HeLa cells was stained with Hoechst 33342 (NucBlue™, Thermo Fisher Scientific). The peptide solution mixture was transferred to the HeLa cells and incubated for 30 min at 37°C before washing three times with PBS. […] For the evaluation of aggregate degradation, the samples were further incubated at 37°C for 3 d and analyzed without any additional washing step. […] The number of aggregates were determined by counting aggregates larger than the threshold 10 µm^2 in an area of 1008 × 1008 µm and repeated in three technical triplicates.

[3] = tested on: HIV-1; details: for enhancement of HIV-1 infection / transduction (in words): 6.5 µM, 1.3 µM, 0.26 µM; for Infectivity enhancing N fold at 1.3 µM: relative to virus only;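 as to all read-outs here: TZM-bl reporter cells exposed to HIV-1 with peptide fibrils, infection read out as β-galactosidase luminescence, compared with virus alone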
Protocol: HIV-1 Infection Assay with TZM-bl cells: The effect of peptide fibrils on HIV-1 infection was studied via a luminescence assay for β-galactosidase, which was reported by TZM-bl cells upon infection. The HIV-1 infection assay was conducted in three technical replicates and repeated in three independent experiments unless stated otherwise.

[4] = Fluorescence microscopy of ThT-stained fibrils (µm-sized aggregates); type: physicochemical; details: 1 mg/mL stained with 50 µM ThT
Protocol: (§1) Transmission electron microscopy (TEM) measurements, Thioflavin (ThT), zeta-potential measurements for fibril characterization were prepared and conducted according to prior art procedures. […] Fibrils were defined as distinct, if no visible structures could be identified in fluorescence and brightfield microscopy.
Fluorescence microscopy: 1 µL Fibrils (1 mg mL^-1) were stained with 9 µL, 50 µM ThT. 10 µL of the stained fibrils (0.1 mg mL^-1) were placed on a microscopy glass. Fluorescence microscopy measurements were performed on a Leica DMi8 microscope with 10x air objective and equipped with a Leica MC170 HD camera with a filter setting λem = 527/30 nm upon excitation at λex = 480/40 nm) and processed with the Leica LASX software.

[5] = TEM of peptide assemblies (fibril formation / assembly); type: physicochemical; details: for TEM morphology (in words): 1 mg/mL in PBS; for Assembly without hydrophob residue: corresponding peptide without hydrophobic moiety; for Assembly: peptide amphiphile
Protocol: The peptides were predissolved in DMSO to a concentration of 10 mg/mL. The fibril formation was induced by further diluting the solution to a final incubation concentration of 650 µM or 1 mg/mL in PBS as indicated in the text and incubated for 1 d (1 day) at rt (room temperature, 20 °C - 25 °C). Other concentrations as described herein were achieved by further dilution of preformed fibrils.
as §1

SMILES	β-sheet amount [1] [%]	degradability (in words) [2]	Degradability / % (rel. to initial particles > 10 µm^2) [2] [%]	aggregate number increases [2] [%]	enhances infectivity at 1.3 µM concentration, times more efficient compared to virus only infection [3] [times]	enhancement of HIV-1 infection / transduction (in words) [3]	Infectivity enhancing N fold at 1.3 µM [3] [N fold]	fluorescent, µm-sized aggregates (ThT staining) [4]	TEM morphology (in words) [5]	Assembly without hydrophob residue [5]	Assembly [5]	association with cellular membranes [2]	infectivity enhancement at 1.3 µM concentration compared to virus only infection (in words) [3]	aggregate number decreases / degraded in presence of HeLa cells within 3 days [2] [%]
CCCCCCCCCCCCCCCC(=O)N[C@@H](C)C(=O)N[C@@H](CCC(N)=O)C(=O)N[C@@H](C)C(=O)N[C@@H](CCCCN)C(=O)N[C@@H](C)C(=O)N[C@@H](CCCCN)C(N)=O [Pat16, C16-AQAKAK-NH2] (Palmitoyl-AQAKAK-NH2)	50	cannot be degraded; also recorded: non-degradable PA	-83	83	4	do not efficiently enhance infectivity	4±1	fluorescent, µm-sized aggregates	fibrillar morphologies	No	Yes			
CCCCCCCCCCCCCCCC(=O)N[C@@H](Cc1c[nH]c2ccccc12)C(=O)N[C@@H](CCC(=O)O)C(=O)N[C@@H](C)C(=O)N[C@@H](CC(C)C)C(=O)N[C@@H](CCCCN)C(=O)N[C@@H](CCCCN)C(N)=O [Pat17, C16-WEALKK-NH2] (Palmitoyl-WEALKK-NH2)	38					no infectivity enhancement can be observed	1±0	fluorescent, µm-sized aggregates	not forming fibrils; also recorded: amorphous aggregate morphology	No	No	no association with cellular membranes	does not enhance infectivity	
CCCCCCCCCCCCCCCC(=O)N[C@@H](C)C(=O)N[C@H](C(=O)N[C@@H](C)C(=O)N[C@@H](CCCCN)C(=O)N[C@@H](CCCCN)C(=O)N[C@@H](CCCCN)C(N)=O)C(C)C [Pat21, C16-AVAKKK-NH2] (Palmitoyl-AVAKKK-NH2)	45	can be degraded; also recorded: not efficiently degradable; also recorded: degradable PA	68		2	no infectivity enhancement can be observed	2±0	fluorescent, µm-sized aggregates	fibrillar morphologies	No	Yes	association with cellular membranes		84
CCCCCCCCCCCCCCCC(=O)N[C@H](C(=O)N[C@H](C(=O)N[C@@H](C)C(=O)N[C@@H](C)C(=O)N[C@@H](Cc1c[nH]cn1)C(=O)N[C@@H](Cc1c[nH]cn1)C(=O)N[C@@H](Cc1c[nH]cn1)C(N)=O)C(C)C)C(C)C [Pat24, C16-VVAAHHH-NH2] (Palmitoyl-VVAAHHH-NH2)	70	cannot efficiently be degraded; also recorded: not efficiently degradable; also recorded: non-degradable PA	26			do not efficiently enhance infectivity	2±0	fluorescent, µm-sized aggregates	fibrillar morphologies	No	Yes	association with cellular membranes	does not enhance infectivity	26
CCCCCCCCCCCCCCCC(=O)N[C@@H](CCCCN)C(=O)NCC(=O)N[C@H](C(=O)N1CCC[C@H]1C(=O)NCC(=O)N[C@H](C(=O)NCC(=O)N[C@@H](CCCCN)C(N)=O)C(C)C)C(C)C [Pat25] (Palmitoyl-KGVPGVGK-NH2)	0					no infectivity enhancement can be observed	1±0	fluorescent, µm-sized aggregates	not forming fibrils; also recorded: no fibrillar morphologies	Yes	No	no association with cellular membranes	do not enhance infectivity	
CCCCCCCCCCCCCCCC(=O)N[C@@H](CCCCN)C(=O)N[C@@H](Cc1ccc(O)cc1)C(=O)N[C@H](C(=O)N[C@@H](Cc1c[nH]cn1)C(=O)N[C@@H](CCC(N)=O)C(=O)N[C@@H](CC(N)=O)C(=O)N[C@@H](Cc1ccc(O)cc1)C(=O)N[C@H](C(=O)N[C@@H](CCCCN)C(=O)N[C@@H](C)C(=O)N[C@@H](CC(C)C)C(=O)N[C@@H](C)C(=O)NCC(=O)N[C@@H](CCCCN)C(=O)N[C@@H](CC(C)C)C(=O)N[C@H](C(N)=O)C(C)C)[C@@H](C)O)[C@@H](C)CC [Pat26] (Palmitoyl-KYIHQNYTKALAGKLV-NH2)	51	cannot be degraded; also recorded: not efficiently degradable; also recorded: non-degradable PA	-110	110	5		5±2	fluorescent, µm-sized aggregates	fibrillar morphologies	No	Yes	association with cellular membranes	does not enhance infectivity	
CCCCCCCCCCCCCCCC(=O)N[C@@H](CC(N)=O)C(=O)N[C@@H](Cc1ccccc1)C(=O)N[C@@H](Cc1ccc(O)cc1)C(=O)N[C@@H](CC(C)C)C(=O)N[C@@H](CCC(N)=O)C(=O)N[C@H](C(=O)N[C@@H](CC(N)=O)C(=O)N[C@@H](CCCCN)C(=O)N[C@H](C(=O)N[C@@H](CC(N)=O)C(=O)N[C@@H](CCCCN)C(N)=O)[C@@H](C)CC)C(C)C [Pat27] (Palmitoyl-NFYLQVNKINK-NH2)	60	cannot be degraded; also recorded: not efficiently degradable; also recorded: non-degradable PA	-123	123	5		5±1	fluorescent, µm-sized aggregates	fibrillar morphologies	Yes	Yes	association with cellular membranes		
CCCCCCCCCCCCCCCC(=O)NCC(=O)NCC(=O)NCC(=O)N[C@@H](CO)C(=O)N[C@@H](CO)C(=O)N[C@@H](CCCCN)C(=O)N[C@@H](CCCCN)C(=O)N[C@@H](CCCCN)C(N)=O [Pat28] (Palmitoyl-GGGSSKKK-NH2)	26						2±1	no fluorescent, µm-sized aggregates	fibrillar morphologies	No	Yes	no association with cellular membranes		
